These are literature values, as cited in patent US6331653A, “Process for producing 3,4-dihydroxy-3-cyclobutene-1,2-dione” (priority 1997, dated 2001).

The conditions of one data set: in an aqueous solution at 25° C.; amine compound.
Regarding `c1ccc2ncccc2c1` [Quinoline], the pKa value is 4.8.

For the compound `CN1CCCC1` [N-methylpyrrolidine], the pKa value is given as 10.5.

For the compound `Cc1ccccn1` [α-picoline], the pKa value is listed as 5.9.

In the case of `CN1CCCCC1` [N-methylpiperidine], the pKa value was 10.1.

Staying with this data set, now noted: water.
As for `CCN(CC)c1ccccc1` [N,N-diethylaniline], the pKa value is 6.6.

As to `CCCCN(CCCC)CCCC` [tributylamine], the pKa value is given as 9.9.

In the case of `CN(C)c1ccccc1` [N,N-dimethylaniline], the pKa value is given as 5.2.
